Reference: article PMC3056768, “Conjugation to the Cell-Penetrating Peptide TAT Potentiates the Photodynamic Effect of Carboxytetramethylrhodamine” (PLoS ONE, 2011)
“Also recorded” adds a separate entry of the source.

What was measured:
HeLa cells [1] = assay: Endocytic uptake (fluorescence of endocytic organelles); type: cell-based, human; conditions: 1 h at 37°C, washed, fluorescence imaging (TMR-TAT 3 µM; TMR-K9 higher concentration)
Procedure: (§1) HeLa (human cervical adenocarcinoma), COS-7 (SV40 transformed African green monkey kidney fibroblast-like cell line) were obtained from ATCC. COLO 316 (human ovarian carcinoma) were obtained from Robert Burghardt (Department of Veterinary Integrative Biosciences, Texas A&M University). Cells were cultured in DMEM supplemented with 10% fetal bovine serum (FBS) and maintained at 37°C in a humidified environment with 5% CO2. Cells were plated in 8-well dishes so that the cells were 70% confluent after 24 h, washed 3 times with L-15 media, incubated with 3 to 10 µM peptides at 37°C for 1 h, washed 3 times with L-15, and imaged. Alternatively, cells were incubated in L-15 at 4°C to inhibit the endocytic uptake of peptides. In this case, cells were imaged with the peptide still present in solution and the low temperature was maintained for the entire duration of imaging. For photosensitization, cells were exposed to light (λex = 560±20 nm) for the indicated time points. Plasma membrane disruption was detected by addition of the cell-impermeable DNA stain SYTOX Blue (5 µM) during or after photosensitization.
Supplementary file pone.0017732.s003.tif: Figure S3 Comparison of the fluorescence intensity of endosomes containing TMR-TAT (incubation at 3 µM) or TMR-K9 (incubation at 10 µM) in the images presented in Figure 1. Imaging was performed in both cases under identical conditions. The fluorescence intensities of all endocytic organelles was measured the Slidebook software. […] (TIF) Click here for additional data file.

red blood cells (RBCs) = test system: red blood cells (RBCs)
Procedure: Whole blood was purchased from Gulf Coast Regional Blood Center (Houston, TX). Erythrocytes were centrifuged for 5 min at 1500 g and the erythrocyte pellet was resuspended with PBS. This was repeated three times to remove plasma and buffy coat. The erythrocytes (50% volume in PBS) were diluted in PBS to a final concentration of 0.25%. Indicated concentration of peptide was added to the medium and the samples were added to the wells of an 8-well chamber glass slide (Nunc). Cells were typically allowed to settle to the bottom of the dish for 5 minutes prior to imaging so as to obtain a layer of cells in the focal plane.
Cells were placed on an inverted epifluorescence microscope (Model IX81, Olympus, Center Valley, PA) equipped with a heating stage maintained at 37°C. The microscope is configured with a spinning disk unit to perform both confocal and wide-field fluorescence microscopy. Images were collected using a Rolera-MGI Plus back-illuminated EMCCD camera (Qimaging, Surrey, BC, Canada). Images were acquired using bright field imaging and two standard fluorescence filter sets: Texas Red (Ex = 560±20 nm/Em = 630±35 nm), and CFP (Ex = 436±10 nm/Em = 480±20 nm). The excitation light was from a 100 W halogen lamp (Olympus USH 1030C) passed through the filter cubes and 40 or 100× objective lenses. Neutral density filters (ND 1, 2, 3, or 4 on the instrument, corresponding to 100, 25, 12.5, or 5% transmittance) and different exposure times were used to modulate the amount of light samples were exposed to. The bright field and fluorescence intensities of cells and ghosts were measured using the SlideBook 4.2 software (Olympus, Center Valley, PA). To determine the percentage of cells stained by SYTOX® Blue, cells were imaged with a 20× objective by phase contrast. Ten to twenty images were acquired for each experiment. The total number of cells in a given image was determined from the phase contrast image while the number of dead cells was determined by identifying cells containing a blue fluorescent nucleus stained by SYTOX® Blue. Cell viability was determined by establishing a ratio of dead cells/total number of cells for each sample (at least 1000 cells were counted in each experiments and each experiments were repeated 3 times).
TMR and TMR containing peptides were used at 2 µM. All experiments were performed by irradiating the samples at 560 nm for 400 msec (∼8 J/cm^2). The data in the histogram represents the average of 4 experiments and the error bars correspond to the standard deviation.

COLO 316 cells = assay: Photocytotoxicity of endocytosed peptide; type: cell-based, human; conditions: COLO 316, 3 µM for 1 h, washed, 560 nm
Procedure: as §1
Figure 2 The photolytic and photocytotoxic effects of TMR-TAT occur rapidly and in all irradiated cells. […] The cells were washed with fresh media and endocytosis of TMR-TAT was confirmed by fluorescence microscopy. […]

HeLa cells [2] = assay: Photocytotoxicity of endocytosed peptide after light irradiation (SYTOX Blue staining, membrane blebbing); type: cell-based

## CN(C)c1ccc2c(c1)Oc1cc(N(C)C)ccc1C21OC(=O)c2cc(C(=O)NCC(=O)N[C@@H](CCCNC(=N)N)C(=O)N[C@@H](CCCCN)C(=O)N[C@@H](CCCCN)C(=O)N[C@@H](CCCNC(=N)N)C(=O)N[C@@H](CCCNC(=N)N)C(=O)N[C@@H](CCC(N)=O)C(=O)N[C@@H](CCCNC(=N)N)C(=O)N[C@@H](CCCNC(=N)N)C(=O)N[C@@H](CCCNC(=N)N)C(=O)NCC(N)=O)ccc21 [TMR-TAT]
HeLa cells [1]
  endocytic uptake by cells: punctate intracellular distribution
Red blood cells (RBCs); 3 µM, 560 nm
  lysis of RBCs when light exposure is increased: more than 90%
Red blood cells (RBCs); RBCs 0.25% in PBS, 1 to 5 µM, no 560 nm light
  lysis of RBCs in the absence of irradiation: No lysis
Red blood cells (RBCs); RBCs 0.25% in PBS, irradiation at 560 nm
  photohemolysis (lytic effect on RBCs upon light exposure): started lysing immediately upon excitation with light
Red blood cells (RBCs); incubation media degassed with nitrogen
  photohemolysis after removal of oxygen: greatly reduced
COLO 316 cells
  photo-induced activities (morphological changes, SYTOX Blue staining): only observable in the irradiated area; also recorded: could be reproduced
HeLa cells [2]; HeLa incubated with TMR-TAT, 430 nm (not absorbed by TMR), radiant exposure approx. 40 J/cm^2
  cell destruction after irradiation at 430 nm: not destroyed
HeLa cells [2]; HeLa, e.g. 436 or 470 nm
  cell death on exposure to light of wavelengths not absorbed by TMR: no cell death
